# Results as given in the supplement of paper PMC11061612.
# Assays:
# [1] = system: MDA-MB-361 (Breast Carcinoma); test: combination Emax (second highest fraction inhibited in the dose matrix, 72 h); higher = more inhibition; extreme values may be limits of the assay
# Summary of the method: (§1)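 Cell lines in DMEM/F12 or RPMI with 10% FBS were plated in 1536-well plates, held 24 hours at 37°C, 5% CO2, then given two-drug dose matrices for 72 hours (DMSO typically 0.2%). Viability was read by CellTiter-Glo 2.0 luminescence and scaled as inhibition from 0 (vehicle wells) to 1 (blank wells). Combination Emax is the second-highest inhibition in the matrix; Bliss excess is observed combination effect minus expected EA + EB − EA·EB, EA and EB being single-agent effects.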
# [2] = system: RO82-W-1 (Thyroid Gland Carcinoma); test: as above
# Summary of the method: as §1
# [3] = system: HCC-78 (Lung Adenocarcinoma); test: as above
# Summary of the method: as §1
# [4] = system: LNCaP-Clone-FGC (Prostate Carcinoma); test: as above
# Summary of the method: as §1
# [5] = system: NCI-H82 (Small Cell Lung Carcinoma); test: as above
# Summary of the method: as §1
# [6] = system: SK-ES-1 (Ewing's Sarcoma); test: as above
# Summary of the method: as §1
# [7] = system: KURAMOCHI (Ovarian Carcinoma); test: as above
# Summary of the method: as §1
# [8] = system: CaR-1 (Colorectal Carcinoma); test: as above
# Summary of the method: as §1
# KELLY (Neuroblastoma) = test: as above
# Summary of the method: as §1
# [9] = system: B-CPAP (Thyroid Gland Carcinoma); test: as above
# Summary of the method: as §1
# [10] = system: KP-1N (Pancreatic Carcinoma); test: as above
# Summary of the method: as §1
# [11] = system: NCI-H2085 (Non-Small Cell Lung Carcinoma); test: as above
# Summary of the method: as §1
# [12] = system: Daoy (Other Solid Carcinomas); test: as above
# Summary of the method: as §1
# [13] = system: HO-1-N-1 (Oral Cavity Carcinoma); test: as above
# Summary of the method: as §1
# [14] = system: CAL-148 (Breast Carcinoma); test: Bliss excess, mean over the matrix (fraction); higher = more synergy
# Summary of the method: as §1
# [15] = system: KYSE-520 (Esophageal Squamous Cell Carcinoma); test: as above
# Summary of the method: as §1
# [16] = system: TE-9 (Esophageal Squamous Cell Carcinoma); test: as above
# Summary of the method: as §1
# [17] = system: DEL (T-Cell Non-Hodgkin's Lymphoma); test: as above
# Summary of the method: as §1
# [18] = system: EC-GI-10 (Esophageal Squamous Cell Carcinoma); test: as above
# Summary of the method: as §1
# [19] = system: HO-1-N-1 (Oral Cavity Carcinoma); test: as above
# Summary of the method: as §1
# 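Throughout, for Bliss excess, mean over the matrix: after 72 h of two-drug dosing.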
Compound,combination Emax [1],combination Emax [2],combination Emax [3],combination Emax [4],combination Emax [5],combination Emax [6],combination Emax [7],combination Emax [8],combination Emax (KELLY (Neuroblastoma)),combination Emax [9],combination Emax [10],combination Emax [11],combination Emax [12],combination Emax [13],Bliss excess [14],Bliss excess [15],Bliss excess [16],Bliss excess [17],Bliss excess [18],Bliss excess [19]
"CC(=O)Nc1cccc(-n2c(=O)n(C3CC3)c(=O)c3c(Nc4ccc(I)cc4F)n(C)c(=O)c(C)c32)c1 [Trametinib] + Cc1nc(-c2cn3c(n2)-c2ccc(-c4cnn(C(C)(C)C(N)=O)c4)cc2OCC3)n(C(C)C)n1 [Taselisib] (first compound max 1 µM, 7x7, partner max 10 µM)",0.976,0.41,0.712,0.813,0.243,0.696,0.703,0.776,0.47,0.558,0.644,0.52,0.622,0.991,0.0554,0.0534,0.073,0.166,0.112,0.268
"CC1(C)CCC(CN2CCN(c3ccc(C(=O)NS(=O)(=O)c4ccc(NCC5CCOCC5)c([N+](=O)[O-])c4)c(Oc4cnc5[nH]ccc5c4)c3)CC2)=C(c2ccc(Cl)cc2)C1 [Venetoclax] + C1CN(CCC1(C(=O)N[C@@H](CCO)C2=CC=C(C=C2)Cl)N)C3=NC=NC4=C3C=CN4 [Capivasertib] (first compound max 1 µM, 7x7, partner max 3 µM)",0.474,0.251,0.276,0.916,0.3,0.469,0.536,0.264,0.998,0.177,0.172,0.329,0.21,0.258,-0.0444,-0.0575,-0.0114,-0.0589,-0.0488,-0.0176
"CC1(C)CCC(CN2CCN(c3ccc(C(=O)NS(=O)(=O)c4ccc(NCC5CCOCC5)c([N+](=O)[O-])c4)c(Oc4cnc5[nH]ccc5c4)c3)CC2)=C(c2ccc(Cl)cc2)C1 [Venetoclax] + C=CCn1c(=O)c2cnc(Nc3ccc(N4CCN(C)CC4)cc3)nc2n1-c1cccc(C(C)(C)O)n1 [AZD1775] (first compound max 1 µM, partner max 1 µM)",0.865,0.261,0.701,0.689,0.917,0.987,0.755,0.246,1,0.502,0.44,0.398,0.873,0.745,0.0589,-0.0907,0.0674,-0.027,0.0086,0.0912
"CC1(C)CCC(CN2CCN(c3ccc(C(=O)NS(=O)(=O)c4ccc(NCC5CCOCC5)c([N+](=O)[O-])c4)c(Oc4cnc5[nH]ccc5c4)c3)CC2)=C(c2ccc(Cl)cc2)C1 [Venetoclax] + CCN(CCO)CCCOc1ccc2c(Nc3cc(CC(=O)Nc4cccc(F)c4)[nH]n3)ncnc2c1 [AZD2811] (first compound max 1 µM, 7x7, partner max 1 µM)",0.334,0.141,0.225,0.272,0.457,1,0.471,0.282,0.985,0.206,0.162,0.46,0.439,0.687,-0.0461,-0.0294,-0.0184,-0.0345,-0.0058,-0.032
"CC1(C)CCC(CN2CCN(c3ccc(C(=O)NS(=O)(=O)c4ccc(NCC5CCOCC5)c([N+](=O)[O-])c4)c(Oc4cnc5[nH]ccc5c4)c3)CC2)=C(c2ccc(Cl)cc2)C1 [Venetoclax] + CN(C)CCCOc1ccc(-c2ccc3ncc4c(c3c2)n(C2CCOCC2)c(=O)n4C)cn1 [AZD0156] (first compound max 1 µM, 7x7, partner max 1 µM)",0.261,0.126,0.181,0.35,0.343,0.374,0.567,0.145,0.976,0.28,0.138,0.186,0.168,0.53,-0.0006,-0.0218,-0.0213,0.0011,0.0119,0.0445
"CC1(C)CCC(CN2CCN(c3ccc(C(=O)NS(=O)(=O)c4ccc(NCC5CCOCC5)c([N+](=O)[O-])c4)c(Oc4cnc5[nH]ccc5c4)c3)CC2)=C(c2ccc(Cl)cc2)C1 [Venetoclax] + COc1cc(Nc2ncc3c(n2)-c2ccc(Cl)cc2C(c2c(F)cccc2OC)=NC3)ccc1C(=O)O [Alisertib] (first compound max 1 µM, 7x7, partner max 10 µM)",0.773,0.422,0.475,0.298,0.73,1,0.474,0.401,0.998,0.598,0.357,0.597,0.932,0.876,-0.0175,-0.0489,0.0148,0.0094,0.0164,-0.0846
"CC1(C)CCC(CN2CCN(c3ccc(C(=O)NS(=O)(=O)c4ccc(NCC5CCOCC5)c([N+](=O)[O-])c4)c(Oc4cnc5[nH]ccc5c4)c3)CC2)=C(c2ccc(Cl)cc2)C1 [Venetoclax] + C[C@@H]1COCCN1C2=NC(=NC(=C2)C3(CC3)[S@](=N)(=O)C)C4=C5C=CNC5=NC=C4 [AZD6738] (first compound max 1 µM, 7x7, partner max 10 µM)",0.884,0.322,0.661,0.684,0.86,0.914,0.567,0.484,0.998,0.631,0.235,0.534,0.9,0.871,-0.0501,-0.0353,-0.0019,0.01,0.0294,-0.0248
"CC1(C)CCC(CN2CCN(c3ccc(C(=O)NS(=O)(=O)c4ccc(NCC5CCOCC5)c([N+](=O)[O-])c4)c(Oc4cnc5[nH]ccc5c4)c3)CC2)=C(c2ccc(Cl)cc2)C1 [Venetoclax] + C[C@@H](Nc1cc(F)cc(F)c1)c1cc(C(=O)N(C)C)cc2c(=O)cc(N3CCOCC3)oc12 [AZD8186] (first compound max 1 µM, 7x7, partner max 3 µM)",0.372,0.217,0.261,0.809,0.141,0.64,0.306,0.109,1,0.132,0.235,0.354,0.176,0.152,0.0101,-0.06,-0.0185,0.0055,-0.0139,-0.009
"CC1(C)CCC(CN2CCN(c3ccc(C(=O)NS(=O)(=O)c4ccc(NCC5CCOCC5)c([N+](=O)[O-])c4)c(Oc4cnc5[nH]ccc5c4)c3)CC2)=C(c2ccc(Cl)cc2)C1 [Venetoclax] + Cc1cc2ncnn2cc1Nc1ncc2c(n1)n(C1CCOCC1)c(=O)n2C [AZD7648] (first compound max 1 µM, 7x7, partner max 10 µM)",0.44,0.224,0.243,0.423,0.221,0.465,0.477,0.175,0.989,0.281,0.108,0.143,0.172,0.331,-0.0143,-0.0284,-0.0175,0.0365,0.038,0.0318
"CC1(C)CCC(CN2CCN(c3ccc(C(=O)NS(=O)(=O)c4ccc(NCC5CCOCC5)c([N+](=O)[O-])c4)c(Oc4cnc5[nH]ccc5c4)c3)CC2)=C(c2ccc(Cl)cc2)C1 [Venetoclax] + Cn1cnc2c(F)c(Nc3ccc(Br)cc3Cl)c(C(=O)NOCCO)cc21 [Selumetinib] (first compound max 1 µM, 7x7, partner max 3 µM)",0.155,0.116,0.167,0.187,0.161,0.285,0.502,0.103,1,0.241,0.191,0.23,0.0883,0.205,-0.0148,-0.0836,-0.027,0.0117,-0.0293,-0.0037
